What was measured:
FU97 (Gastric Carcinoma) [1] = test: combination Emax (second highest fraction inhibited in the dose matrix, 72 h); higher = more inhibition; extreme values may be limits of the assay
In short: (§1)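 Bliss excess equals the observed combination effect minus the expected value EA + EB − EA·EB, where EA and EB are the effects of each agent alone. Combination Emax is the second-highest inhibition within the matrix. Inhibition was scaled from CellTiter-Glo 2.0 luminescence, with 0 set by vehicle wells and 1 by blank wells, after 72 hours of two-drug dosing of cells plated in 1536-well plates.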

U-2-OS (Osteosarcoma) [2] = test: as above
In short: as §1

NY (Osteosarcoma) [3] = test: as above
In short: as §1

[4] = test system: ONS-76 (Other Solid Carcinomas); test: as above
In short: as §1

[5] = test system: CCK-81 (Colorectal Carcinoma); test: as above
In short: as §1

[6] = test system: NCI-H64 (Small Cell Lung Carcinoma); test: as above
In short: as §1

IGR-37 (Melanoma) [7] = test: as above
In short: as §1

[8] = test system: TT (Thyroid Gland Carcinoma); test: as above
In short: as §1

[9] = test system: NCI-H1581 (Non-Small Cell Lung Carcinoma); test: as above
In short: as §1

[10] = test system: KARPAS-422 (B-Cell Non-Hodgkin's Lymphoma); test: as above
In short: as §1

[11] = test system: PANC-10-05 (Pancreatic Carcinoma); test: as above
In short: as §1

[12] = test system: ECC10 (Gastric Carcinoma); test: as above
In short: as §1

[13] = test system: NCI-H2066 (Squamous Cell Lung Carcinoma); test: as above
In short: as §1

[14] = test system: BICR22 (Oral Cavity Carcinoma); test: as above
In short: as §1

[15] = test system: COLO-320-HSR (Colorectal Carcinoma); test: as above
In short: as §1

[16] = test system: NCI-H1666 (Lung Adenocarcinoma); test: as above
In short: as §1

[17] = test system: CAPAN-2 (Pancreatic Carcinoma); test: as above
In short: as §1

[18] = test system: VCaP (Prostate Carcinoma); test: as above
In short: as §1

FU97 (Gastric Carcinoma) [19] = test: Bliss excess, mean over the matrix (fraction); higher = more synergy
In short: as §1

U-2-OS (Osteosarcoma) [20] = test: as above
In short: as §1

NY (Osteosarcoma) [21] = test: as above
In short: as §1

[22] = test system: ONS-76 (Other Solid Carcinomas); test: as above
In short: as §1

[23] = test system: CCK-81 (Colorectal Carcinoma); test: as above
In short: as §1

[24] = test system: NCI-H64 (Small Cell Lung Carcinoma); test: as above
In short: as §1

IGR-37 (Melanoma) [25] = test: as above
In short: as §1

[26] = test system: TT (Thyroid Gland Carcinoma); test: as above
In short: as §1

[27] = test system: NCI-H1581 (Non-Small Cell Lung Carcinoma); test: as above
In short: as §1

[28] = test system: KARPAS-422 (B-Cell Non-Hodgkin's Lymphoma); test: as above
In short: as §1

[29] = test system: PANC-10-05 (Pancreatic Carcinoma); test: as above
In short: as §1

[30] = test system: ECC10 (Gastric Carcinoma); test: as above
In short: as §1

[31] = test system: NCI-H2066 (Squamous Cell Lung Carcinoma); test: as above
In short: as §1

[32] = test system: BICR22 (Oral Cavity Carcinoma); test: as above
In short: as §1

[33] = test system: COLO-320-HSR (Colorectal Carcinoma); test: as above
In short: as §1

[34] = test system: NCI-H1666 (Lung Adenocarcinoma); test: as above
In short: as §1

[35] = test system: CAPAN-2 (Pancreatic Carcinoma); test: as above
In short: as §1

[36] = test system: VCaP (Prostate Carcinoma); test: as above
In short: as §1

## O=C(c1cc(Cc2n[nH]c(=O)c3ccccc23)ccc1F)N1CCN(C(=O)C2CC2)CC1 [Olaparib] + Cc1c2c(nn1C)CSCc1cc(n(C)n1)CSc1cc(c3ccccc3c1)OCCCc1c(C(=O)O)n(C)c3c-2c(Cl)ccc13 [AZD5991] (first compound max 10 µM, 7x7, partner max 1 µM)
FU97 (Gastric Carcinoma) [1]
  combination Emax: 0.207
U-2-OS (Osteosarcoma) [2]
  combination Emax: 0.0686
NY (Osteosarcoma) [3]
  combination Emax: 0.426
[4]
  combination Emax: 0.17
[5]
  combination Emax: 0.785
[6]
  combination Emax: 0.148
IGR-37 (Melanoma) [7]
  combination Emax: 0.151
[8]
  combination Emax: 0.168
[9]
  combination Emax: 0.972
[10]
  combination Emax: 0.967
[11]
  combination Emax: 0.159
[12]
  combination Emax: 0.738
[13]
  combination Emax: 0.2
[14]
  combination Emax: 0.108
[15]
  combination Emax: 0.836
[16]
  combination Emax: 0.111
[17]
  combination Emax: 0.044
[18]
  combination Emax: 0.958
FU97 (Gastric Carcinoma) [19]
  Bliss excess: -0.0169
U-2-OS (Osteosarcoma) [20]
  Bliss excess: -0.0394
NY (Osteosarcoma) [21]
  Bliss excess: -0.0239
[22]
  Bliss excess: -0.038
[23]
  Bliss excess: -0.0311
[24]
  Bliss excess: 0.0017
IGR-37 (Melanoma) [25]
  Bliss excess: -0.0419
[26]
  Bliss excess: -0.0273
[27]
  Bliss excess: 0.0183
[28]
  Bliss excess: -0.0071
[29]
  Bliss excess: -0.0739
[30]
  Bliss excess: 0.0111
[31]
  Bliss excess: -0.0539
[32]
  Bliss excess: -0.0317
[33]
  Bliss excess: -0.0304
[34]
  Bliss excess: -0.0669
[35]
  Bliss excess: -0.0426
[36]
  Bliss excess: -0.0247

## N#Cc1cnc(Nc2cc(NC[C@H]3CNCCO3)c(C(F)(F)F)cn2)cn1 [SRA737] + C=CCn1c(=O)c2cnc(Nc3ccc(N4CCN(C)CC4)cc3)nc2n1-c1cccc(C(C)(C)O)n1 [AZD1775] (first compound max 10 µM, partner max 1 µM)
FU97 (Gastric Carcinoma) [1]
  combination Emax: 0.366
U-2-OS (Osteosarcoma) [2]
  combination Emax: 0.877
NY (Osteosarcoma) [3]
  combination Emax: 0.673
[4]
  combination Emax: 0.824
[5]
  combination Emax: 0.916
[6]
  combination Emax: 0.865
IGR-37 (Melanoma) [7]
  combination Emax: 0.789
[8]
  combination Emax: 0.352
[9]
  combination Emax: 0.67
[10]
  combination Emax: 0.817
[11]
  combination Emax: 0.42
[12]
  combination Emax: 0.823
[13]
  combination Emax: 0.426
[14]
  combination Emax: 0.836
[15]
  combination Emax: 0.706
[16]
  combination Emax: 0.253
[17]
  combination Emax: 0.306
[18]
  combination Emax: 0.66
FU97 (Gastric Carcinoma) [19]
  Bliss excess: 0.0097
U-2-OS (Osteosarcoma) [20]
  Bliss excess: 0.0962
NY (Osteosarcoma) [21]
  Bliss excess: 0.0355
[22]
  Bliss excess: 0.11
[23]
  Bliss excess: 0.0173
[24]
  Bliss excess: 0.0534
IGR-37 (Melanoma) [25]
  Bliss excess: 0.0182
[26]
  Bliss excess: 0.0428
[27]
  Bliss excess: 0.0425
[28]
  Bliss excess: 0.0952
[29]
  Bliss excess: -0.101
[30]
  Bliss excess: 0.0773
[31]
  Bliss excess: 0.0147
[32]
  Bliss excess: 0.177
[33]
  Bliss excess: 0.116
[34]
  Bliss excess: -0.0345
[35]
  Bliss excess: -0.0431
[36]
  Bliss excess: 0.0327

## N#Cc1cnc(Nc2cc(NC[C@H]3CNCCO3)c(C(F)(F)F)cn2)cn1 [SRA737] + Nc1ccn([C@@H]2O[C@H](CO)[C@@H](O)C2(F)F)c(=O)n1 [Gemcitabine] (first compound max 10 µM, 7x7, partner max 0.3 µM)
FU97 (Gastric Carcinoma) [1]
  combination Emax: 0.318
U-2-OS (Osteosarcoma) [2]
  combination Emax: 0.829
NY (Osteosarcoma) [3]
  combination Emax: 0.808
[4]
  combination Emax: 0.811
[5]
  combination Emax: 0.859
[6]
  combination Emax: 0.863
IGR-37 (Melanoma) [7]
  combination Emax: 0.782
[8]
  combination Emax: 0.469
[9]
  combination Emax: 0.957
[10]
  combination Emax: 0.852
[11]
  combination Emax: 0.584
[12]
  combination Emax: 0.859
[13]
  combination Emax: 0.208
[14]
  combination Emax: 0.946
[15]
  combination Emax: 0.815
[16]
  combination Emax: 0.54
[17]
  combination Emax: 0.319
[18]
  combination Emax: 0.77
FU97 (Gastric Carcinoma) [19]
  Bliss excess: -0.0494
U-2-OS (Osteosarcoma) [20]
  Bliss excess: 0.051
NY (Osteosarcoma) [21]
  Bliss excess: -0.0439
[22]
  Bliss excess: -0.0843
[23]
  Bliss excess: -0.0976
[24]
  Bliss excess: 0.0476
IGR-37 (Melanoma) [25]
  Bliss excess: -0.09
[26]
  Bliss excess: -0.0551
[27]
  Bliss excess: 0.176
[28]
  Bliss excess: 0.0409
[29]
  Bliss excess: 0.0598
[30]
  Bliss excess: 0.0624
[31]
  Bliss excess: -0.0332
[32]
  Bliss excess: 0.0636
[33]
  Bliss excess: 0.0911
[34]
  Bliss excess: 0.0128
[35]
  Bliss excess: 0.0141
[36]
  Bliss excess: -0.0259

## N#Cc1cnc(Nc2cc(NC[C@H]3CNCCO3)c(C(F)(F)F)cn2)cn1 [SRA737] + O=c1[nH]cc(F)c(=O)[nH]1 [5-Fluorouracil] (first compound max 10 µM, 7x7, partner max 20 µM)
FU97 (Gastric Carcinoma) [1]
  combination Emax: 0.167
U-2-OS (Osteosarcoma) [2]
  combination Emax: 0.625
NY (Osteosarcoma) [3]
  combination Emax: 0.538
[4]
  combination Emax: 0.835
[5]
  combination Emax: 0.855
[6]
  combination Emax: 0.736
IGR-37 (Melanoma) [7]
  combination Emax: 0.728
[8]
  combination Emax: 0.373
[9]
  combination Emax: 0.411
[10]
  combination Emax: 0.521
[11]
  combination Emax: 0.311
[12]
  combination Emax: 0.72
[13]
  combination Emax: 0.197
[14]
  combination Emax: 0.84
[15]
  combination Emax: 0.302
[16]
  combination Emax: 0.381
[17]
  combination Emax: 0.147
[18]
  combination Emax: 0.378
FU97 (Gastric Carcinoma) [19]
  Bliss excess: -0.0344
U-2-OS (Osteosarcoma) [20]
  Bliss excess: -0.0167
NY (Osteosarcoma) [21]
  Bliss excess: -0.0522
[22]
  Bliss excess: -0.0482
[23]
  Bliss excess: -0.0681
[24]
  Bliss excess: -0.0104
IGR-37 (Melanoma) [25]
  Bliss excess: -0.057
[26]
  Bliss excess: 0.0035
[27]
  Bliss excess: 0.0093
[28]
  Bliss excess: -0.0095
[29]
  Bliss excess: -0.0727
[30]
  Bliss excess: 0.0718
[31]
  Bliss excess: -0.0379
[32]
  Bliss excess: 0.0671
[33]
  Bliss excess: 0.0047
[34]
  Bliss excess: -0.0428
[35]
  Bliss excess: -0.0132
[36]
  Bliss excess: -0.046

## Cc1nc(-c2cn3c(n2)-c2ccc(-c4cnn(C(C)(C)C(N)=O)c4)cc2OCC3)n(C(C)C)n1 [Taselisib] + O=C(Nc1ccc2[nH]nc(-c3ccncc3)c2c1)[C@@H]1CCN(CC(=O)N2CCN(c3ccc(-c4ncccn4)cc3)CC2)C1 [SCH772984] (first compound max 10 µM, 7x7, partner max 5 µM)
FU97 (Gastric Carcinoma) [1]
  combination Emax: 0.404
U-2-OS (Osteosarcoma) [2]
  combination Emax: 0.993
NY (Osteosarcoma) [3]
  combination Emax: 0.564
[4]
  combination Emax: 0.976
[5]
  combination Emax: 0.988
[6]
  combination Emax: 0.377
IGR-37 (Melanoma) [7]
  combination Emax: 0.938
[8]
  combination Emax: 0.568
[9]
  combination Emax: 0.635
[10]
  combination Emax: 0.554
[11]
  combination Emax: 0.809
[12]
  combination Emax: 1
[13]
  combination Emax: 0.681
[14]
  combination Emax: 0.966
[15]
  combination Emax: 0.419
[16]
  combination Emax: 0.881
[17]
  combination Emax: 0.521
[18]
  combination Emax: 0.587
FU97 (Gastric Carcinoma) [19]
  Bliss excess: 0.0139
U-2-OS (Osteosarcoma) [20]
  Bliss excess: 0.112
NY (Osteosarcoma) [21]
  Bliss excess: 0.0687
[22]
  Bliss excess: 0.0608
[23]
  Bliss excess: 0.0528
[24]
  Bliss excess: 0.0028
IGR-37 (Melanoma) [25]
  Bliss excess: 0.0732
[26]
  Bliss excess: 0.106
[27]
  Bliss excess: 0.178
[28]
  Bliss excess: 0.0406
[29]
  Bliss excess: 0.0166
[30]
  Bliss excess: 0.124
[31]
  Bliss excess: 0.0133
[32]
  Bliss excess: 0.116
[33]
  Bliss excess: -0.0441
[34]
  Bliss excess: 0.0878
[35]
  Bliss excess: 0.0241
[36]
  Bliss excess: -0.0098

Reference: the supplement of paper PMC11061612
